Experimental data as given in the supplement of paper PMC10627819.

Tests used:
B. subtilis 168 [1] = assay: Bliss interaction score (quartile over a dose matrix) (fitness difference); higher = more antagonism (negative = synergy)
Method in brief: (§1)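 The Bliss score is observed fitness minus expected fitness, where the expected value is the product of single-drug fitness values inferred from combination data. Fitness is OD595 at entry into stationary phase normalised to the plate's robust no-drug mean and capped at 1. Scores are reported as quartiles spanning technical, biological and donor/recipient replicates.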

S. aureus Newman [2] = assay: as above
Method in brief: as §1

S. pneumoniae D39V [3] = assay: as above
Method in brief: as §1

S. aureus DSM 20231 [4] = assay: as above
Method in brief: as §1

B. subtilis 168 [5] = assay: fitness (endpoint OD595 vs no drug) (fraction); higher = more growth
Method in brief: (§2)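 At 37 °C, bacteria in TSB, LB Lennox or CY were grown in 384-well plates from a starting OD595 of 0.01. OD595 was measured every 30 min for 14 h, with the first reading used as background. Fitness is the optical density at the switch to stationary phase as a fraction of the robust mean of no-drug control wells, capped at 1.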

S. aureus Newman [6] = assay: as above
Method in brief: as §2

S. pneumoniae D39V [7] = assay: as above
Method in brief: as §2

S. aureus DSM 20231 [8] = assay: as above
Method in brief: as §2
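Throughout, for Bliss interaction score (quartile over a dose matrix): first quartile when negative (synergy) and third quartile when positive (antagonism).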
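Throughout, for fitness (endpoint OD595 vs no drug): OD595 on entry to stationary phase over no-drug wells; at most 1.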

C[n+]1ccc(-c2cc[n+](C)cc2)cc1 [Paraquat] + CN(N=O)C(=O)N[C@@H](C=O)[C@@H](O)[C@H](O)[C@H](O)CO [Streptozotocin]
Settings | Bliss interaction score
B. subtilis 168 [1] | 0.0356
S. aureus DSM 20231 [4] | -0.0445
S. aureus Newman [2] | -0.0522
S. pneumoniae D39V [3] | 0.0357

fitness, B. subtilis 168 [5], one replicate
Settings | first compound 1.25 µg/mL | first compound 2.5 µg/mL | first compound 5 µg/mL
partner 0.15 µg/mL | ≥ 1 | ≥ 1 | 0.845
partner 0.3 µg/mL | ≥ 1 | 0.964 | 0.851
partner 0.6 µg/mL | 0.945 | 0.956 | 0.776

fitness
Settings | first compound 1.25 µg/mL | first compound 1.5 µg/mL | first compound 2.5 µg/mL | first compound 3 µg/mL | first compound 5 µg/mL | first compound 6 µg/mL
S. aureus DSM 20231 [8], partner 0.15 µg/mL | 0.865 | – | 0.835 | – | 0.774 | –
S. aureus DSM 20231 [8], partner 0.3 µg/mL | 0.795 | – | 0.842 | – | 0.758 | –
S. aureus DSM 20231 [8], partner 0.6 µg/mL | 0.679 | – | 0.689 | – | 0.636 | –
S. aureus Newman [6], partner 0.15 µg/mL | 0.781 | – | 0.769 | – | 0.727 | –
S. aureus Newman [6], partner 0.3 µg/mL | 0.66 | – | 0.654 | – | 0.637 | –
S. aureus Newman [6], partner 0.6 µg/mL | 0.523 | – | 0.536 | – | 0.508 | –
S. pneumoniae D39V [7], partner 1.2 µg/mL | – | 0.989 | – | 0.983 | – | 0.969
S. pneumoniae D39V [7], partner 2.4 µg/mL | – | 0.97 | – | 0.926 | – | 0.977
S. pneumoniae D39V [7], partner 4.8 µg/mL | – | 0.944 | – | 0.955 | – | 0.933

C[n+]1ccc(-c2cc[n+](C)cc2)cc1 [Paraquat] + CN[C@@H]1[C@H](O)[C@H](NC)[C@H]2O[C@@]3(O)C(=O)C[C@@H](C)O[C@H]3O[C@@H]2[C@H]1O [Spectinomycin]
Settings | Bliss interaction score
B. subtilis 168 [1] | 0.0537
S. aureus DSM 20231 [4] | -0.046
S. aureus Newman [2] | 0.0596
S. pneumoniae D39V [3] | 0.0349

fitness
Settings | first compound 1.25 µg/mL | first compound 1.5 µg/mL | first compound 2.5 µg/mL | first compound 3 µg/mL | first compound 5 µg/mL | first compound 6 µg/mL
B. subtilis 168 [5], partner 2 µg/mL | 0.97 | – | 0.989 | – | 0.902 | –
B. subtilis 168 [5], partner 4 µg/mL | 0.986 | – | 0.964 | – | 0.847 | –
B. subtilis 168 [5], partner 8 µg/mL | 0.877 | – | 0.882 | – | 0.847 | –
S. aureus DSM 20231 [8], partner 4 µg/mL | 0.946 | – | 0.909 | – | 0.844 | –
S. aureus DSM 20231 [8], partner 8 µg/mL | 0.913 | – | 0.844 | – | 0.817 | –
S. aureus DSM 20231 [8], partner 16 µg/mL | 0.837 | – | 0.874 | – | 0.758 | –
S. aureus Newman [6], partner 4 µg/mL | 0.857 | – | 0.85 | – | 0.825 | –
S. aureus Newman [6], partner 8 µg/mL | 0.872 | – | 0.825 | – | 0.906 | –
S. aureus Newman [6], partner 16 µg/mL | 0.89 | – | 0.849 | – | 0.833 | –
S. pneumoniae D39V [7], partner 4 µg/mL | – | 0.964 | – | 0.976 | – | 0.995
S. pneumoniae D39V [7], partner 8 µg/mL | – | 0.958 | – | 0.969 | – | 0.951

fitness, one replicate
Settings | first compound 1.25 µg/mL | first compound 1.5 µg/mL | first compound 2.5 µg/mL | first compound 3 µg/mL | first compound 5 µg/mL | first compound 6 µg/mL
S. aureus DSM 20231 [8], partner 32 µg/mL | 0.669 | – | 0.713 | – | 0.735 | –
S. aureus DSM 20231 [8], partner 64 µg/mL | 0.0748 | – | 0.0594 | – | 0.0636 | –
S. aureus Newman [6], partner 32 µg/mL | 0.62 | – | 0.6 | – | 0.563 | –
S. aureus Newman [6], partner 64 µg/mL | 0.0529 | – | 0.0827 | – | 0.106 | –
S. pneumoniae D39V [7], partner 16 µg/mL | – | 0.851 | – | 0.856 | – | 0.913
